Data on eight compounds can be found in US11007184B2, “Cancer treatments using combinations of type 2 MEK and ERK inhibitors” (BIOMED VALLEY DISCOVERIES, INC., priority 2013, dated 2021).

Molecules are shown by their SMILES.

The test system of one test is RKO Parental. Briefly: Single agent proliferation assay (CellTiter-Glo, 72 h). It is filed as cell-based. For orientation: In ATP-based viability assays light output follows the ATP content of the culture.
The subject of test [1] is A375 cells. Briefly: Dose escalation study. It is filed as cell-based, human. The settings on record: Month 2; for Dose escalation progress: A375 cells; for Concentration in which escalated cells were growing: single agent escalation. The source says: Medium was refreshed every 3-4 days. […] Again, medium was refreshed every 3-4 days. The process was repeated as required (FIG. 19).

The next test relates to RKO BRAF KO (+/−/−). Briefly: Single agent proliferation assay (CellTiter-Glo, 72 h). It is filed as cell-based.
The subject of test [2] is MAPK signaling in A375 and HCT116 cells. Briefly: Western blot analysis of MAPK signaling. It is filed as cell-based, human. How it is done:
For Western blot studies, HCT116 cells (5×10^6) were seeded into 10 cm dishes in McCoy's 5A plus 10% FBS. […] Cells were allowed to adhere overnight prior to addition of the indicated amount of test compound (BVD-523) or vehicle control. Cells were treated for either 4 or 24 hours before isolation of whole-cell protein lysates, as specified below. Cells were harvested by trypsinisation, pelleted and snap frozen. Lysates were prepared with RIPA (Radio-Immunoprecipitation Assay) buffer, clarified by centrifugation and quantitated by bicinchoninic acid assay (BCA) assay. 20-50 μg of protein was resolved by SDS-PAGE electrophoresis, blotted onto PVDF membrane and probed using the antibodies detailed in Table 14 (for the 4-hour treatment) and Table 15 (for the 24-hour treatment) below.

The next test deals with HCT116 Parental. Briefly: Single agent proliferation assay (CellTiter-Glo, 72 h). It is filed as cell-based. The settings on record: Homo sapiens, HCT-116.
The next test concerns HCT116 KRAS KO (+/−). The description is as above. It is filed as cell-based. The following applies: Homo sapiens, HCT-116.
The subject of another test is HCT116 cells. Briefly: Focused combination study, Alamar Blue viability assay. The class given is cell-based, human. How it is done: (§1) Combinations were tested using a 10×8 dose matrix with a final DMSO concentration of 0.2%. A 96 hour assay incubation period followed, with subsequent addition of Alamar Blue 10% (v/v) and 4 hours incubation prior to reading on a fluorescent plate reader. After reading Alamar Blue, the medium/Alamar Blue mix was flicked off and 100 μl of CellTiter-Glo/PBS (1:1) added and the plates processed as per the manufacturer's instructions (Promega). Media only background values were subtracted before the data was analysed. The Bliss additivity model was then applied. In brief, predicted fractional inhibition values for combined inhibition were calculated using the equation […]) where A and B are the fractional inhibitions obtained by drug A alone or drug B alone at specific concentrations. Cbliss is the fractional inhibition that would be expected if the combination of the two drugs were exactly additive. Cbliss values are subtracted from the experimentally observed fractional inhibition values to give an 'excess over Bliss' value. […] Excess over Bliss values are plotted as heat maps±SD. For focused combination studies, the Alamar Blue viability assays were performed as described above for combination studies. Additionally, Caspase-Glo 3/7 assays were performed. In brief, HCT116 cells were seeded in triplicate in white 96-well plates at a cell density of 5000 cells/well in McCoy's 5A plus 10% FBS. A375 cells were seeded at a density of 5000 cells/well in DMEM plus 10% FBS. […] The final concentration of DMSO was 0.2%, and 800 nM staurosporine was included as a positive control. 24 and 48 hour assay incubation periods were used. Then, Caspase-Glo® 3/7 50% (v/v) was added, plates were mixed for 5 minutes on an orbital shaker and incubated for 1 hour at room temperature prior to reading on a luminescent plate reader. Media only background values were subtracted before the data was analysed.

Test [3] relates to A375 cells. The description is as above. The class given is cell-based, human. The settings on record: with the lower concentrations of Sorafenib. As for the experimental part:
as §1

For test [4], the system named is A375 cells. Briefly: Combination study, 10×8 dose matrix, Alamar Blue and CellTiter-Glo, Bliss additivity model. The following applies: single agent. The class given is cell-based, human. How it is done:
Combinations were tested using a 10×8 dose matrix with a final DMSO concentration of 0.2%. A 96 hour assay incubation period followed, with subsequent addition of Alamar Blue 10% (v/v) and 4 hours incubation prior to reading on a fluorescent plate reader. After reading Alamar Blue, the medium/Alamar Blue mix was flicked off and 100 μl of CellTiter-Glo/PBS (1:1) added and the plates processed as per the manufacturer's instructions (Promega). Media only background values were subtracted before the data was analysed. The Bliss additivity model was then applied.
In brief, predicted fractional inhibition values for combined inhibition were calculated using the equation Cbliss=A+B−(A×B) where A and B are the fractional inhibitions obtained by drug A alone or drug B alone at specific concentrations. Cbliss is the fractional inhibition that would be expected if the combination of the two drugs were exactly additive. Cbliss values are subtracted from the experimentally observed fractional inhibition values to give an ‘excess over Bliss’ value. Excess over Bliss values greater than 0 indicate synergy, whereas values less than 0 indicate antagonism. Excess over Bliss values are plotted as heat maps±SD.
The single and combination data are also presented as dose-response curves generated in GraphPad Prism (plotted using % viability relative to DMSO only treated controls).

The test system of test [5] is A375 cells escalated with BVD-523 (BVD-523 line). Briefly: Proliferation assay (Alamar Blue, 96 hours), dose escalation study. The class given is cell-based. The following applies: Homo sapiens, A-375, Month 3, growing in 1.2 μM BVD-523, read-out: Relative IC50. For orientation: Resazurin is reduced to fluorescent resorufin, in cell work by metabolically active cells.
Excerpt: (§2) Cancer cell lines were maintained in cell culture under standard media and serum conditions. For dose escalation studies, A375 cells were split, grown to about 40-60% confluence, and then treated with the initial dose of the specified drug.
(§3) Cells were then allowed to grow until 70-90% confluence and split. Split ratios were kept as “normal” as possible and reasonably consistent between treatments (e.g. a minimum of 50% of the normal split ratio of the parentals). Medium was refreshed every 3-4 days. When cells again reached about 40-60% confluence, the dose was escalated. In the event that the 40-60% window was missed, the cells were split again and dosed once they reached 40-60% confluence. Again, medium was refreshed every 3-4 days.
(§4) Proliferation assays were used to track changes in sensitivity to the escalated agent(s) at appropriate time intervals (e.g. each month, although the timing is dependent on adequate cell numbers being available). […] Alamar Blue 10% (v/v) was then added and incubated for 4 hours and fluorescent product was detected using a BMG FLUOstar plate reader. The average media only background value was deducted and the data analyzed using a 4-parameter logistic equation in GraphPad Prism.

Test [6] relates to A375 cells escalated with dabrafenib + trametinib (Dab/Tram line).
Excerpt: as §2, §3, §4
For a further test, the system named is A375 Parental. Briefly: Single agent proliferation assay (CellTiter-Glo, 72 h). The class given is cell-based. The settings on record: Homo sapiens, A-375.
In a further test the test system is A375 NRAS (Q61K/+). Described as above. The class given is cell-based. The settings on record: Homo sapiens, A-375.

Description for A375 NRAS (Q61K/+): Cells were seeded in 96-well plates at the densities and media conditions indicated in Table 16 and allowed to adhere overnight prior to addition of compound or vehicle control. […] Test compounds were incubated with the cells for 72 h at 37° C., 5% CO2 in a humidified atmosphere. CellTiter-Glo® reagent (Promega, Madison, Wis.) was added according to manufacturer's instructions and luminescence detected using the BMG FLUOstar plate reader (BMG Labtech, Ortenberg, Germany). The average media only background value was deducted and the data analysed using a 4-parameter logistic equation in GraphPad Prism (GraphPad Software, La Jolla, Calif.).
Description for A375 Parental: (§5) Test compounds were incubated with the cells for 72 h at 37° C., 5% CO2 in a humidified atmosphere. CellTiter-Glo® reagent (Promega, Madison, Wis.) was added according to manufacturer's instructions and luminescence detected using the BMG FLUOstar plate reader (BMG Labtech, Ortenberg, Germany). The average media only background value was deducted and the data analysed using a 4-parameter logistic equation in GraphPad Prism (GraphPad Software, La Jolla, Calif.).
Description for HCT116 KRAS KO (+/−): as §5
Description for HCT116 Parental: as §5
Description for RKO BRAF KO (+/−/−): as §5
Description for RKO Parental: as §5

Consider `CC(C)Nc1cc(-c2c[nH]c(C(=O)N[C@H](CO)c3cccc(Cl)c3)c2)c(Cl)cn1` [BVD-523], for which the IC50 with RKO Parental is 621 nM; in the test with RKO BRAF KO (+/−/−) it was 762 nM; in the test on HCT116 Parental it was 256 nM; with HCT116 KRAS KO (+/−) it was 316 nM. Also, the Dose escalation progress entry in the test on A375 cells [1] is on record as “progressed more slowly”. Further, in [2] (RAF and RAS mutant cancer cells in-vitro, acute and prolonged treatment), the “Concentrations required to induce changes in substrate phosphorylation and effector targets of ERK kinases” value is listed as “low micromolar range”. Moreover, the “RSK1/2 phosphorylation at residues strictly dependent on ERK (T359/5363)” value in [2] (following BVD-523 treatment) was “reduced phosphorylation”. Further, in [2] (following either acute or prolonged treatment), the “Cellular ERK enzyme activity” value was “fully inhibited”. For the same compound, in the test on HCT116 cells, the “Combination interaction with AZ628” value is recorded as “windows of synergy”. For the same compound, the “Combination interaction with Sorafenib” value in the test on HCT116 cells (Trametinib: with higher concentrations of Sorafenib) is recorded as “windows of synergy”; with A375 cells [3], “window of synergy”.

Turning to `CC(C)(C)c1nc(-c2cccc(NS(=O)(=O)c3c(F)cccc3F)c2F)c(-c2ccnc(N)n2)s1` [Dabrafenib, dabrafenib], the “Sensitivity of A375 cells, which carry a BRAF (V600E) mutation” value in the test with A375 cells [4] is listed as “sensitive”. Besides, in the test with A375 cells [1], the Dose escalation progress entry is given as “quickest” and the “Concentration in which escalated cells were growing” value amounted to 100 × parental cell IC50. Moreover, the IC50 in [5] stood at 18.4 nM. In addition, the IC50 in test [6] turned out to be 58 nM.

In the case of `O=C(NOCCO)c1ccc2cncn2c1Nc1ccc(I)cc1F` [GDC-0623], the IC50 amounted to 32 nM with RKO Parental; 8 nM with A375 Parental; 5 nM in the test on RKO BRAF KO (+/−/−); 31 nM with HCT116 Parental; 10 nM in the test with A375 NRAS (Q61K/+); 29 nM in the test with HCT116 KRAS KO (+/−).

For `O=C(c1ccc(F)c(F)c1Nc1ccc(I)cc1F)N1CC(O)([C@@H]2CCCCN2)C1` [GDC-0973], the IC50 in the test on RKO Parental turned out to be 40 nM; in the test with A375 Parental it was 2 nM; in the test on RKO BRAF KO (+/−/−) it was 31 nM; with HCT116 Parental, 90 nM; in the test with A375 NRAS (Q61K/+) it was 3 nM; with HCT116 KRAS KO (+/−) it was 61 nM.

`Cn1cnc2c(F)c(Nc3ccc(Br)cc3F)c(C(=O)NOCCO)cc21` [MEK-162]: the IC50 was 210 nM in the test with RKO Parental; 23 nM with A375 Parental; 23 nM with RKO BRAF KO (+/−/−); 114 nM in the test on HCT116 Parental; 33 nM in the test on A375 NRAS (Q61K/+); 113 nM in the test with HCT116 KRAS KO (+/−).

In the test on A375 NRAS (Q61K/+), `CC(=O)O[C@H]1C(=O)[C@@]2(C)[C@H]([C@H](OC(=O)c3ccccc3)[C@]3(O)C[C@H](OC(=O)[C@H](O)[C@@H](NC(=O)c4ccccc4)c4ccccc4)C(C)=C1C3(C)C)[C@]1(OC(C)=O)CO[C@@H]1C[C@@H]2O` [Paclitaxel] registered an IC50 of 6 nM.

For `O=C(Nc1ccc2[nH]nc(-c3ccncc3)c2c1)[C@@H]1CCN(CC(=O)N2CCN(c3ccc(-c4ncccn4)cc3)CC2)C1` [SCH772984], the IC50 in the test with RKO Parental was determined as 126 nM; in the test with A375 Parental it was 43 nM; in the test with RKO BRAF KO (+/−/−), 125 nM; in the test with HCT116 Parental it was 116 nM; with A375 NRAS (Q61K/+) it was 79 nM; in the test on HCT116 KRAS KO (+/−), 141 nM.

`CC(=O)Nc1cccc(-n2c(=O)n(C3CC3)c(=O)c3c(Nc4ccc(I)cc4F)n(C)c(=O)c(C)c32)c1` [Trametinib, trametinib]: the IC50 was 8 nM in the test on RKO Parental; 0.3 nM in the test on A375 Parental; 3 nM in the test on RKO BRAF KO (+/−/−); 7 nM in the test with HCT116 Parental; 1.7 nM in test [5]; 6 nM with HCT116 KRAS KO (+/−). For the same compound, the “Concentration in which escalated cells were growing” value in the test with A375 cells [1] came to 100 × parental cell IC50.

Usually IC50 stands for the midpoint of a concentration-inhibition curve.
